Results on six molecules are retold here after ChEMBL document CHEMBL1129905, “Benzothiadiazine dioxide acyclonucleosides as lead compounds for the development of new agents against human cytomegalovirus and varicella-zoster virus infections” (Bioorg Med Chem Lett, 1997).

In brackets after ≈: the same amount, converted by molar mass.

For experiment [1], the system named is HEL. Description: Antiviral activity was measured against cytomegalovirus (CMV) Davis strain in human embryonic lung (HEL) cells. Type of experiment: functional, cell-based.
In experiment [2] the test system is MT4. Description: The potential anti-HIV activity was evaluated against HIV-1 IIIb strain in MT-4 cells. It is filed as functional, cell-based. To be noted: Homo sapiens.
Experiment [3] can be described thus: Cytotoxic activity was measured in human embryonic lung cells(HeLa). It is filed as functional.
Experiment [4] relates to MT4. Briefly: The potential anti-HIV activity was evaluated against HIV-2 ROD strain in MT-4 cells. The settings on record: Homo sapiens. Type of experiment: functional, cell-based.
For experiment [5], the system named is HEL. Description: Antiviral activity was measured against cytomegalovirus (CMV) AD-169 strain in human embryonic lung (HEL) cells. It is filed as functional, cell-based.
The subject of experiment [6] is HEL. Description: Antiviral activity was measured against Varicella-Zoster virus (VZV) 07/1 strain in human embryonic lung (HEL) cells. It is filed as functional, cell-based.
In experiment [7] the test system is HEL. Briefly: Antiviral activity was measured against Varicella-Zoster virus (VZV) YS/R strain in human embryonic lung (HEL) cells. Type of experiment: functional, cell-based.
Experiment [8] concerns HeLa. Description: (§1) Cytotoxic activity was measured in human […] cells (HeLa). It is filed as functional.
For experiment [9], the system named is HeLa. The description is as §1. It is filed as functional. The source holds these as a separate data set.
For experiment [10], the system named is Human immunodeficiency virus 1. Description: Tested for its ability to inhibit replication of HIV-1 in MT-4 cells, activity expressed as IC50. It is filed as functional. To be noted: Human immunodeficiency virus 1, MT4.

Take `O=C1c2ccccc2N(COCc2ccccc2)S(=O)(=O)N1Cc1ccccc1`: the IC50 – broadly, the concentration that inhibits the measured activity by half – in the experiment on HEL [1] is 12 µg/mL (≈ 29.4 µM); in the experiment on MT4 [2], > 8 µg/mL; in the experiment with MT4 [4] it was > 8 µg/mL; in the experiment with HEL [5] it was 11 µg/mL (≈ 26.9 µM); in the experiment with HEL [6] it was 11 µg/mL (≈ 26.9 µM); in the experiment with HEL [7], 13 µg/mL (≈ 31.8 µM). For the same molecule, the CC50 – broadly, the concentration giving 50% cytotoxicity – was 25 µg/mL (≈ 61.2 µM) in [3], > 50 µg/mL in the experiment with HeLa [8] and > 50 µg/mL with HeLa [9].
`Nc1nc2c(ncn2COCCO)c(=O)[nH]1` [ACYCLOVIR]: half-maximal cytotoxicity in the experiment on HeLa [8] (CC50) was put at 200 µg/mL (≈ 888 µM).
On to `O=C(OCCOCN1c2ccccc2C(=O)N(Cc2ccccc2)S1(=O)=O)c1ccccc1`, for which the IC50 with HEL [1] is 12 µg/mL (≈ 25.7 µM); in the experiment with MT4 [2] it was 79.3 µg/mL (≈ 170 µM); in the experiment on MT4 [4], > 86 µg/mL; with HEL [5], 12 µg/mL (≈ 25.7 µM); in the experiment with HEL [6], > 12 µg/mL; with HEL [7], > 12 µg/mL. The CC50 in experiment [3] is > 125 µg/mL; in the experiment with HeLa [8] it was 24 µg/mL (≈ 51.4 µM); in the experiment on HeLa [9], 24 µg/mL (≈ 51.4 µM).
For `Nc1nc2c(ncn2COC(CO)CO)c(=O)[nH]1` [GANCICLOVIR], the IC50 worked out at 1.3 µg/mL (≈ 5.09 µM) in the experiment with HEL [1] and 1.2 µg/mL (≈ 4.7 µM) in the experiment with HEL [5]. Moreover, in the experiment on HeLa [9], the CC50 was > 50 µg/mL.
For the molecule `O=C1c2ccccc2N(Cc2ccccc2)S(=O)(=O)N1COCc1ccccc1`, the IC50 with HEL [1] is 3.6 µg/mL (≈ 8.81 µM); with MT4 [2] it was 3.7 µg/mL (≈ 9.06 µM); in the experiment with MT4 [4], > 99 µg/mL; in the experiment on HEL [5], 3.6 µg/mL (≈ 8.81 µM); in the experiment on HEL [6] it was > 5 µg/mL; in the experiment with HEL [7], 3 µg/mL (≈ 7.34 µM). In [10], this molecule had an IC50 of 3.7 µg/mL (≈ 9.06 µM). Further, the 50% cytotoxic concentration (CC50) was > 125 µg/mL in experiment [3], > 50 µg/mL in the experiment with HeLa [8] and > 50 µg/mL in the experiment on HeLa [9].
For `C#CCOCN1c2ccccc2C(=O)N(Cc2ccccc2)S1(=O)=O`, the IC50 with HEL [1] was 11 µg/mL (≈ 30.9 µM); in the experiment on MT4 [2] it was > 8 µg/mL; in the experiment with MT4 [4] it was > 8 µg/mL; in the experiment on HEL [5] it was 8.4 µg/mL (≈ 23.6 µM); with HEL [6] it was > 5 µg/mL; in the experiment on HEL [7], > 5 µg/mL. Also, the CC50 is 23 µg/mL (≈ 64.5 µM) in [3], > 50 µg/mL in the experiment on HeLa [8] and > 50 µg/mL in the experiment on HeLa [9].
